From ChEMBL document CHEMBL4804281, “STK4 inhibitors for treatment of hematologic malignancies” (2020)
Each block holds one compound with its values, some of them ahead of it. Calls of active or inactive are those of the source. The rule behind the calls is not given here.

Columns and labels:
[1] = molecular target: Misshapen-like kinase 1 (Homo sapiens) (UniProt Q8N4C8); experiment: Inhibition of MINK in human NCI-H929 cells by mass spectroscopic analysis; type: cell-based; conditions: concentration not given here
[2] = molecular target: Calcium/calmodulin-dependent protein kinase type II subunit gamma (Homo sapiens) (UniProt Q13555); experiment: Inhibition of CAMK2G in human NCI-H929 cells at 10 uM by mass spectroscopic analysis relative to control; type: cell-based
Calcium/calmodulin-dependent protein kinase type II subunit gamma (Homo sapiens), sequence (Q13555 whole entry, canonical isoform): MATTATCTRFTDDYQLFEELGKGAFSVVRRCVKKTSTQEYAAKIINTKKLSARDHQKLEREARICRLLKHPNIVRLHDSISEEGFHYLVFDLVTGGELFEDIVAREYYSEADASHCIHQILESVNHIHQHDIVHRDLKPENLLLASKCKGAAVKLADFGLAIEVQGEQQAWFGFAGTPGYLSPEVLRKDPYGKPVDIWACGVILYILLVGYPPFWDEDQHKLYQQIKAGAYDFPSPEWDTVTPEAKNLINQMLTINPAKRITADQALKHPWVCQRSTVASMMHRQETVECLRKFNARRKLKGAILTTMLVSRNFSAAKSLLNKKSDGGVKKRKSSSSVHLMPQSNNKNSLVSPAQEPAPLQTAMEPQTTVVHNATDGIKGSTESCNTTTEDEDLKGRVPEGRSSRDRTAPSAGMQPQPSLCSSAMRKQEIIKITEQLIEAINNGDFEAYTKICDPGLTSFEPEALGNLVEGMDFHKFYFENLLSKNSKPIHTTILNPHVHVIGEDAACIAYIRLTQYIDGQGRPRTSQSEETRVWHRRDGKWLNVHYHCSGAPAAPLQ

[3] = molecular target: Casein kinase I isoform alpha (Homo sapiens) (UniProt P48729); experiment: Inhibition of CK1a in human NCI-H929 cells at 10 uM by mass spectroscopic analysis relative to control; type: cell-based
[4] = molecular target: Casein kinase I isoform gamma-3 (Homo sapiens) (UniProt Q9Y6M4); experiment: Inhibition of CK1g3 in human NCI-H929 cells at 10 uM by mass spectroscopic analysis relative to control; type: cell-based
Casein kinase I isoform gamma-3 (Homo sapiens), sequence (Q9Y6M4 whole entry, looked up, the tested form may be a part, canonical isoform): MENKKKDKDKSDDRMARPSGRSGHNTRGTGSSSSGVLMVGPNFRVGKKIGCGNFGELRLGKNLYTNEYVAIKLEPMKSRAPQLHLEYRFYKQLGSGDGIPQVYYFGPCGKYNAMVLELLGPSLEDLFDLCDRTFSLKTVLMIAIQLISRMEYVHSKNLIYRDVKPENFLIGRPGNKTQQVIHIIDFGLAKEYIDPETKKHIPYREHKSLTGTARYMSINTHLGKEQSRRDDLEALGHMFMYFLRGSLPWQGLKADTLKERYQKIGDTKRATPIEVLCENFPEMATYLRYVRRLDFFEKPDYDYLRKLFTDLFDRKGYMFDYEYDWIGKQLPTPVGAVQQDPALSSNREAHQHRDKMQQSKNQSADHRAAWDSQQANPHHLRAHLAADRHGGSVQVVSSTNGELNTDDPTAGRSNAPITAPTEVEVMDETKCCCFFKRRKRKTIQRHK

[5] = molecular target: eIF-2-alpha kinase GCN2 (Homo sapiens) (UniProt Q9P2K8); experiment: Inhibition of GCN2 domain 2 in human NCI-H929 cells at 10 uM by mass spectroscopic analysis relative to control; type: cell-based
[6] = molecular target: Glycogen synthase kinase-3 alpha (Homo sapiens) (UniProt P49840); experiment: Inhibition of GSK3A in human NCI-H929 cells at 10 uM by mass spectroscopic analysis relative to control; type: cell-based
[7] = molecular target: Scaffold protein ILK (Homo sapiens) (UniProt Q13418); experiment: Inhibition of ILK in human NCI-H929 cells at 10 uM by mass spectroscopic analysis relative to control; type: cell-based
Scaffold protein ILK (Homo sapiens), sequence (Q13418 whole entry): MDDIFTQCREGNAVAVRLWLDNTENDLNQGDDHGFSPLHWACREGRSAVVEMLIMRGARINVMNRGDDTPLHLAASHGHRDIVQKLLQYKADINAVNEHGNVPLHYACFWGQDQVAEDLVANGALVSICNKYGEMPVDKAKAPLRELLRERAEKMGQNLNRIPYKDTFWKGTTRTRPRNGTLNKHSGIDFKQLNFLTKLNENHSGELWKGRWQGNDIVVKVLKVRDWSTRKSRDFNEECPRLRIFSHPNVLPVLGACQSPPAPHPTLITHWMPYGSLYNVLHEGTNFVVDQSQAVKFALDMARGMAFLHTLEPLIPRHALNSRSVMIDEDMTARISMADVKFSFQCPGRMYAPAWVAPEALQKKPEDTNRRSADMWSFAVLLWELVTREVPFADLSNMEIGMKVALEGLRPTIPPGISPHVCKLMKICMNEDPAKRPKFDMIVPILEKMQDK

[8] = molecular target: Serine/threonine-protein kinase STK11 (Homo sapiens) (UniProt Q15831); experiment: Inhibition of LKB1 in human NCI-H929 cells at 10 uM by mass spectroscopic analysis relative to control; type: cell-based
[9] = molecular target: Dual specificity mitogen-activated protein kinase kinase 7 (Homo sapiens) (UniProt O14733); experiment: Inhibition of MAP2K7 in human NCI-H929 cells at 10 uM by mass spectroscopic analysis relative to control; type: cell-based
Dual specificity mitogen-activated protein kinase kinase 7 (Homo sapiens), sequence (O14733 whole entry): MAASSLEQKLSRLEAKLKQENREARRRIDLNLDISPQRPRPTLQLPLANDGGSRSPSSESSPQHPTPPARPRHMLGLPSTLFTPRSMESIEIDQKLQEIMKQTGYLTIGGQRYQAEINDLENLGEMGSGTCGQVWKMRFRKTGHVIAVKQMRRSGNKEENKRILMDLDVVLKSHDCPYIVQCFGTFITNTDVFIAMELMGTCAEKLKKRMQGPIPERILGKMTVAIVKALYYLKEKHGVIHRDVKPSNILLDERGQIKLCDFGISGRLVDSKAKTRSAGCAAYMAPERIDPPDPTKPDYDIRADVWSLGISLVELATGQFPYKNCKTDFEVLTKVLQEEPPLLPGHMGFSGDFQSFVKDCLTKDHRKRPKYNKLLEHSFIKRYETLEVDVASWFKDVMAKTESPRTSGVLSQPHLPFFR

[10] = molecular target: Mitogen-activated protein kinase kinase kinase 1 (Homo sapiens) (UniProt Q13233); experiment: Inhibition of MAP3K1 in human NCI-H929 cells at 10 uM by mass spectroscopic analysis relative to control; type: cell-based
[11] = molecular target: Mitogen-activated protein kinase kinase kinase 11 (Homo sapiens) (UniProt Q16584); experiment: Inhibition of MLK3 in human NCI-H929 cells at 10 uM by mass spectroscopic analysis relative to control; type: cell-based
[12] = molecular target: T1, Serine/threonine-protein kinase 4 (Homo sapiens) (UniProt Q13043); experiment: Inhibition of MST1 in human NCI-H929 cells at 10 uM by mass spectroscopic analysis relative to control; type: cell-based
T1 sequence (whole entry): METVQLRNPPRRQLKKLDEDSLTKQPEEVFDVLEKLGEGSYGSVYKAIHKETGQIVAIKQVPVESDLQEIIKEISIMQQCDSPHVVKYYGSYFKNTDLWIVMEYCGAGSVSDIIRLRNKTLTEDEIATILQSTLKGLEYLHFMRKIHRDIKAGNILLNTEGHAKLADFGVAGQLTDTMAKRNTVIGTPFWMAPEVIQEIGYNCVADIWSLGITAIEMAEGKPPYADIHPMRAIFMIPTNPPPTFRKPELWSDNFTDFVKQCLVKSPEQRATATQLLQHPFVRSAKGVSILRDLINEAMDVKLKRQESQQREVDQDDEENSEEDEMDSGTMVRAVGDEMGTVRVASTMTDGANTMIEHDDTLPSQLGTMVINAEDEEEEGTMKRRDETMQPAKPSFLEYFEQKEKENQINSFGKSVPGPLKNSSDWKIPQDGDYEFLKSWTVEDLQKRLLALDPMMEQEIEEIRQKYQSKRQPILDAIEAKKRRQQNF

[13] = molecular target: Serine/threonine-protein kinase Nek9 (Homo sapiens) (UniProt Q8TD19); experiment: Inhibition of NEK9 in human NCI-H929 cells at 10 uM by mass spectroscopic analysis relative to control; type: cell-based
[14] = molecular target: Phosphatidylinositol 5-phosphate 4-kinase type-2 gamma (Homo sapiens) (UniProt Q8TBX8); experiment: Inhibition of PIP4K2C in human NCI-H929 cells at 10 uM by mass spectroscopic analysis relative to control; type: cell-based
[15] = molecular target: Protein kinase C zeta type (Homo sapiens) (UniProt Q05513); experiment: Inhibition of PKCz in human NCI-H929 cells at 10 uM by mass spectroscopic analysis relative to control; type: cell-based
Protein kinase C zeta type (Homo sapiens), sequence (Q05513 whole entry): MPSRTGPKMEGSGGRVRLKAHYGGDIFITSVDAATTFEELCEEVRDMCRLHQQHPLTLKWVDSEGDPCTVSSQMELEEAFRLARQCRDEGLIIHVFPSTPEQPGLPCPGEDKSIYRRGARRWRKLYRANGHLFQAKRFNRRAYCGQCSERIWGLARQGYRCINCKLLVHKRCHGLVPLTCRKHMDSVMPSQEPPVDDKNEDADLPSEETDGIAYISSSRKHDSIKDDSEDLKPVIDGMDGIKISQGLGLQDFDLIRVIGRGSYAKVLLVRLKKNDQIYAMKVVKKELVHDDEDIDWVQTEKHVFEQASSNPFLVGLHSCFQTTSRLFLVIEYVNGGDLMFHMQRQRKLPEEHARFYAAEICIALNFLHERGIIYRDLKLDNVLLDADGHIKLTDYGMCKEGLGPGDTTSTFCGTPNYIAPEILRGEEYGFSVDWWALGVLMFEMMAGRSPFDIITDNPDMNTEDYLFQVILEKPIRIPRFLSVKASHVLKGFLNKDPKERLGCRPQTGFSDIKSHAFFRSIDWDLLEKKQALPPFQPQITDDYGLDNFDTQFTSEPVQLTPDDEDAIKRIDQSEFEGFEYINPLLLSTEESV

[16] = molecular target: Cyclin-G-associated kinase (Homo sapiens) (UniProt O14976); experiment: Inhibition of GAK in human NCI-H929 cells at 10 uM by mass spectroscopic analysis relative to control; type: cell-based
[17] = molecular target: Ribosomal protein S6 kinase alpha-3 (Homo sapiens) (UniProt P51812); experiment: Inhibition of RSK2 domain 1 in human NCI-H929 cells at 10 uM by mass spectroscopic analysis relative to control; type: cell-based
Ribosomal protein S6 kinase alpha-3 (Homo sapiens), sequence (P51812 whole entry, the tested form may be a part): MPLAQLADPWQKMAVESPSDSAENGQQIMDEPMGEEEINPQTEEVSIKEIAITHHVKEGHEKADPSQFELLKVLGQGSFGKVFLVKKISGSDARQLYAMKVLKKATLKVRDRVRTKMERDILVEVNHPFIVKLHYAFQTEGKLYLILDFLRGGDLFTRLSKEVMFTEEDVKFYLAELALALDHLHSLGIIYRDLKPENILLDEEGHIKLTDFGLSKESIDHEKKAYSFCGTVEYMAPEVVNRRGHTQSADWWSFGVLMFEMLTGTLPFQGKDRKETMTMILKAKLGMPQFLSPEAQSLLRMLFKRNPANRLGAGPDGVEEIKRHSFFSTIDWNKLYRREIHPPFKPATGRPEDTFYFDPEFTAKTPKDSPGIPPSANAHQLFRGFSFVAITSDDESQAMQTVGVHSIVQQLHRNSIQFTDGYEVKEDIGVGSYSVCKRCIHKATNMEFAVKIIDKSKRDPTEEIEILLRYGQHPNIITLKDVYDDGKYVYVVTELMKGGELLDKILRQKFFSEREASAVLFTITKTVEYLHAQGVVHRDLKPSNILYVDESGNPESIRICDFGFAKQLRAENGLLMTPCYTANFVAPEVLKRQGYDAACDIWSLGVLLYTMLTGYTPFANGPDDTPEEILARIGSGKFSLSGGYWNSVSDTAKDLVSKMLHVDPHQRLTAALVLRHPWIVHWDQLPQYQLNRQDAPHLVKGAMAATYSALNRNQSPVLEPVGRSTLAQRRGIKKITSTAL

[18] = molecular target: Maternal embryonic leucine zipper kinase (Homo sapiens) (UniProt Q14680); experiment: Inhibition of MELK in human NCI-H929 cells at 10 uM by mass spectroscopic analysis relative to control; type: cell-based
Maternal embryonic leucine zipper kinase (Homo sapiens), sequence (Q14680 whole entry, looked up): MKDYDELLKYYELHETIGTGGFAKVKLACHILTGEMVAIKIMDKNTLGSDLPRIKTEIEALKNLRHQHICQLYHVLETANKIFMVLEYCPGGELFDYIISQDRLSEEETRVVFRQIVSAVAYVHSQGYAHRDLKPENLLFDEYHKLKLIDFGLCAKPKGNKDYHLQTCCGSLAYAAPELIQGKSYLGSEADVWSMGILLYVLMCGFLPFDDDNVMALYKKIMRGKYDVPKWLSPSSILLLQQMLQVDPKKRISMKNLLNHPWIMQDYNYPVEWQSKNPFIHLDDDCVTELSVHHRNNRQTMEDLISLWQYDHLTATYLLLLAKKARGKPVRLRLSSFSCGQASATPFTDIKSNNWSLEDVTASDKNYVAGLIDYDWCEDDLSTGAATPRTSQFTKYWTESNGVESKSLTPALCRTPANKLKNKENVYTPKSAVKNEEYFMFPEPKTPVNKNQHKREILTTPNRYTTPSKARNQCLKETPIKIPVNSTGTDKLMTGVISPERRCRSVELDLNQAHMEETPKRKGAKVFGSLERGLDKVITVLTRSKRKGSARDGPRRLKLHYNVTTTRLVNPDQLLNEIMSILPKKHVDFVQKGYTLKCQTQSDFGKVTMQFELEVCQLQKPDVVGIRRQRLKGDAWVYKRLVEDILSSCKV

[19] = test system: MM1.S; experiment: Induction of apoptosis in human MM1.S cells assessed as late apoptotic cells measured after 48 hrs by annevxinV/FITC-propidium iodide staining based flow cytometry (reference value: 2.09 %); type: functional
[20] = test system: NCI-H929; experiment: Upregulation of PUMA protein level in human NCI-H929 cells at 1 uM measured after 24 hrs by Western blot analysis; type: functional, cell-based
[21] = test system: NCI-H929; experiment: Upregulation of BAX protein level in human NCI-H929 cells at 1 uM measured after 24 hrs by Western blot analysis; type: functional, cell-based
[22] = test system: NCI-H929; experiment: Upregulation of p21 protein level in human NCI-H929 cells at 1 uM measured after 24 hrs by Western blot analysis; type: functional, cell-based
[23] = test system: NCI-H929; experiment: Induction of apoptosis in human NCI-H929 cells assessed as induction of PARP cleavage at 1 uM measured after 24 hrs by Western blot analysis; type: functional, cell-based
[24] = molecular target: Mitogen-activated protein kinase kinase kinase 2 (Homo sapiens) (UniProt Q9Y2U5); experiment: Inhibition of MAP3K2 in human NCI-H929 cells at 10 uM by mass spectroscopic analysis relative to control; type: cell-based
[25] = molecular target: Mitogen-activated protein kinase 1 (Homo sapiens) (UniProt P28482); experiment: Inhibition of ERK2 in human NCI-H929 cells at 10 uM by mass spectroscopic analysis relative to control; type: cell-based
[26] = molecular target: Mitogen-activated protein kinase kinase kinase kinase 3 (Homo sapiens) (UniProt Q8IVH8); experiment: Inhibition of KHS2 in human NCI-H929 cells at 10 uM by mass spectroscopic analysis relative to control; type: cell-based
Mitogen-activated protein kinase kinase kinase kinase 3 (Homo sapiens), sequence (Q8IVH8 whole entry): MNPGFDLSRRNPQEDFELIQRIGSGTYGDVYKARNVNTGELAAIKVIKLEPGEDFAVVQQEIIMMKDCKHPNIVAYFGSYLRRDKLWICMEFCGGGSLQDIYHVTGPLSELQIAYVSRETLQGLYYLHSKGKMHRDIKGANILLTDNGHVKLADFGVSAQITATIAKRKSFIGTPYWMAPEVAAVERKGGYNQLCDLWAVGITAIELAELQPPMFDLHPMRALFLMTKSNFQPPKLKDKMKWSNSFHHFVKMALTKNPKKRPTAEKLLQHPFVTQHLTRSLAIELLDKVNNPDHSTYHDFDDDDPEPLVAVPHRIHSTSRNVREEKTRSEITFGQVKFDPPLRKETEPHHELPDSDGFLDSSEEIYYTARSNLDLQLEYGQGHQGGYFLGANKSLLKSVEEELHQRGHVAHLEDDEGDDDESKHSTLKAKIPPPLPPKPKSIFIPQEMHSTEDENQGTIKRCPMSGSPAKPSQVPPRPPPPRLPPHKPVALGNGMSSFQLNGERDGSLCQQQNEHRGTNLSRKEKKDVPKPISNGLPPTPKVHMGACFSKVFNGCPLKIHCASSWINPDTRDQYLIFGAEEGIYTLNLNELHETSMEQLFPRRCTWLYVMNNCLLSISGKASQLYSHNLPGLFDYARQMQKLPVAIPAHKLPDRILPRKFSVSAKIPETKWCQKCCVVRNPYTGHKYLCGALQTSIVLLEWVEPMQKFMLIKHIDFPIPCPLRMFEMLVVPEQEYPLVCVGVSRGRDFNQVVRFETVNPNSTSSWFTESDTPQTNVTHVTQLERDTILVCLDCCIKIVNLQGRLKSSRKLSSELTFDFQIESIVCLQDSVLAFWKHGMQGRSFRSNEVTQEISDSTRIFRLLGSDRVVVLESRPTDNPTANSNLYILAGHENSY

Structure (SMILES): COc1cc(NS(=O)(=O)C2CC2)ccc1-c1cnc(N)c(-c2ccc3c(c2)CCNC3=O)c1
inhibition [1]: 0% | inhibition [2]: 75% | inhibition [3]: 75% | inhibition [4]: 0% | inhibition [5]: 75% | inhibition [6]: 75% | inhibition [7]: 50% | inhibition [8]: > 90% | inhibition [9]: 75% | inhibition [10]: 0% | inhibition [11]: 0% | inhibition [12]: 0% | inhibition [13]: 50% | inhibition [14]: 75% | inhibition [15]: 50% | inhibition [16]: 50%

Structure (SMILES): Nc1ncc(-c2ccc(NS(=O)(=O)C3CC3)cc2OC2CCCCC2)cc1-c1ccc2c(c1)CCNC2=O
inhibition [17]: 50% | inhibition [18]: 50%

Now from value to compound, other results behind:

inhibition [24]: < 50%
Structure (SMILES): Nc1ncc(-c2cccc([N+](=O)[O-])c2F)cc1-c1ccc2c(c1)CCNC2=O
Activity [19]: 25.05% | Activity [20]: Active | Activity [21]: Active | Activity [22]: Active | Activity [23]: Active

inhibition [25]: 50%
Structure (SMILES): Nc1ncc(-c2cccc3ncsc23)cc1-c1ccc2c(c1)CCNC2=O

inhibition [26]: 50%
Structure (SMILES): CN(C1CC1)S(=O)(=O)c1ccc(-c2cnc(N)c(-c3ccc4c(c3)CCNC4=O)c2)c(F)c1
